The results in this text go back to patent publication US8404703B2, “Medicinal compositions containing aspirin” (Daiichi Sankyo Company, Limited, priority 2000, dated 2013).

Each structure is given as a SMILES string.

In this test the test system is thrombogenesis or thrombus formation. Nature of the test: Inhibitory activity against thrombogenesis, modified arterio-venous shunt thrombosis model in rats. To be noted: oral, shunt circulation started 2 h after administration, 30 min circulation, average ±SE (n=6). Type of test: in vivo, male Sprague Dawley rats. From the text: As the test animals, male Sprague Dawley rats of 7 weeks old were purchased from SLC Japan and 6 rats per group were used.
2-Acetoxy-5-(α-cyclopropylcarbonyl-2-fluorobenzyl)-4,5,6,7-tetrahydrothieno[3,2-c]pyridine was synthesized according to the method described in the Specification of Japanese Patent Application Publication No. Hei 6-41139 and was used, while aspirin was purchased from Sigma Chemical Co. and was used. Both compounds were suspended in 5% (w/v) gum arabic solution, and were diluted so as to be 1 ml/kg of administration volume and were orally administered.
The inhibitory activities of the compounds against thrombogenesis or thrombus formation were evaluated in the modified arterio-venous shunt thrombosis model in rats, which was described by Umetsu et al. [Thromb. Haemost., 39, 74-83 (1978)].
The shunt tube was prepared as follows; i.e., both sides of a medical silicon tube of 12 cm length [inner diameter: 1.5 mm, outer diameter: 2.5 mm, purchased from KANEKA Medix Co., Ltd] were connected each to a polyethylene tube of 7 cm length [inner diameter: 0.5 mm, outer diameter: 1.0 mm, purchased from Natsume Seisakusho Co., Ltd.] covered with silicon via a medical silicon tube of 0.7 cm length [inner diameter: 1.0 mm, outer diameter: 1.5 mm, KANEKA Medix Co., Ltd] as connector. A surgical suture of 10 cm length was placed in the silicon tube of 12 cm length.
The animal was anesthetized with an intraperitoneal injection of 40 mg/kg of pentobarbital sodium (purchased from Abbott Laboratories Inc.), and the jugular of one side and the carotid of the other side were exposed. The arteriovenous shunt was made by cannulation of a shunt tube filled with heparin solution [[…], purchased from Fuso Pharmaceutical Co., Ltd] into the carotid and the jugular which had been previously exposed.
The test compounds were orally administered and the blood was started to circulate into the shunt area two hours after the administration. Thirty minutes after the circulation was started, the shunt tube was removed, and the thrombus adsorbed on the surgical suture was weighed. The results in the table are expressed as the average weight ±SE (n=6).

As to `CC(=O)Oc1ccccc1C(=O)O` [Aspirin, aspirin], under “Aspirin 10 mg/kg alone”, the “Inhibition Rate” value is given as 12.3 ± 4.4% and the “Thrombus Weight” value is recorded as 46.6 ± 2.8 mg.

Take `CC(=O)Oc1cc2c(s1)CCN(C(C(=O)C1CC1)c1ccccc1F)C2` (stereo not drawn) [Compound A, 2-Acetoxy-5-(α-cyclopropylcarbonyl-2-fluorobenzyl)-4,5,6,7-tetrahydrothieno[3,2-c]pyridine]: for the setting “Compound A 0.3 mg/kg alone”, the “Inhibition Rate” value was determined as 17.0 ± 4.1% and the “Thrombus Weight” value came out at 43.5 ± 2.1 mg. Besides, where the note is “Compound A 0.6 mg/kg alone”, the “Inhibition Rate” value is given as 28.3 ± 4.0% and the “Thrombus Weight” value stood at 37.5 ± 2.1 mg.
